Reference: patent US11331299B2, “Medicinal use of serrulatane diterpenes” (The University of Sydney, priority 2016, dated 2022)
Where a name gives a salt, the structure may show the parent alone. Read-outs that look alike come from different tables or passages of the source.

How the values were obtained:
USP 16 (h) = USP 16 (h) (Homo sapiens, UniProt Q9Y5T5); test: Epigenetic enzyme assay, Ubiquitin modifying enzymes; type: biochemical; details: Table 10; read-out: Reference IC50
ATAD2B (h) bromodomain = molecular target: T1, ATAD2B (h) bromodomain (Homo sapiens, UniProt Q9ULI0); test: Epigenetic binding assay, Bromodomain; details: Table 4; read-out: Reference IC50
T1 construct: ATAD2B bromodomain; host or cells: E. coli
T1 sequence (Q9ULI0 951-1066 limits assumed): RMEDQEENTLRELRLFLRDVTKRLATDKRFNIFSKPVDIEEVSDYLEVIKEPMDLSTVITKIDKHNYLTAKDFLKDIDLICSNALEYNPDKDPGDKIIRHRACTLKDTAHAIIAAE

PB1(4) (h) bromodomain = molecular target: T2, PB1(4) (h) bromodomain (Homo sapiens, UniProt Q86U86); test: Epigenetic binding assay, Bromodomain; details: Table 4; read-out: Reference IC50
T2 construct: Bromodomain
T2 sequence (Q86U86 518-625 limits assumed): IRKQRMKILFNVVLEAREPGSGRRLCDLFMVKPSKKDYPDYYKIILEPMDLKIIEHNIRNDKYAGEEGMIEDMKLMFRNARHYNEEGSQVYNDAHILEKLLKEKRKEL

USP 10 (h) = USP 10 (h) (Homo sapiens, UniProt Q14694); test: Epigenetic enzyme assay, Ubiquitin modifying enzymes; type: biochemical; details: Table 10; read-out: Reference IC50
USP 10 (h), sequence (Q14694 whole entry): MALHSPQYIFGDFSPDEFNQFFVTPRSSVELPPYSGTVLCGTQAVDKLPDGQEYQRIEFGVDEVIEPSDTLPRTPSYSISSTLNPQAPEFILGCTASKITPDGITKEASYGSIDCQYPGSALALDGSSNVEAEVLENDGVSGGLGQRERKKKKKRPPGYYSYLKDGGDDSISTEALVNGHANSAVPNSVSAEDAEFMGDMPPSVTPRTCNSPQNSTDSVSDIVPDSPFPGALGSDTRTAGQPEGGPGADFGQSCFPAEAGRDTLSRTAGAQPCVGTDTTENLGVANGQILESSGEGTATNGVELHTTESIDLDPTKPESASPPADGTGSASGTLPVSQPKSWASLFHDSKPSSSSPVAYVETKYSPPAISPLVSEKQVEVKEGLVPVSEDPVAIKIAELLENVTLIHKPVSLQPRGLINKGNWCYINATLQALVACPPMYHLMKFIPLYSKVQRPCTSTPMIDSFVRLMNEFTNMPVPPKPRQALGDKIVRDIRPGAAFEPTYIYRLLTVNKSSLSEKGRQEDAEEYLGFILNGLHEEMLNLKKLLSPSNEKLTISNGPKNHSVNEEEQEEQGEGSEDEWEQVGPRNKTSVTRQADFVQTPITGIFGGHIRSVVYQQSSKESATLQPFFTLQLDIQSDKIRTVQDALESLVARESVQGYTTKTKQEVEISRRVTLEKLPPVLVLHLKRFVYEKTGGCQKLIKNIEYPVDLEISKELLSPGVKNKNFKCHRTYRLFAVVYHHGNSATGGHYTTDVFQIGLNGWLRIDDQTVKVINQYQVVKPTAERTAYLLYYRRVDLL

Lipid Peroxidase = test: Lipid Peroxidase; type: biochemical, Dunkin Hartley Guinea pig; details: concentration-response 10 to 0.01 μM
Wi38 = test: OncoPanel normal cell proliferation assay (3-day); type: cell-based; details: Homo sapiens, WI-38, 72 h, Wi38, lung fibroblast, 3-day incubation
HMEC = test: OncoPanel normal cell proliferation assay (3-day); type: cell-based
HREC = test: OncoPanel normal cell proliferation assay (3-day); type: cell-based; details: 72 h, renal mixed epithelial, 3-day incubation
CCD 841 CoN = test: OncoPanel normal cell proliferation assay (3-day); type: cell-based; details: Homo sapiens, 72 h, colon epithelial, 3-day incubation
[1] = tested on: 4 normal cell types, CCD 841 CoN, HMEC, HREC and Wi38; test: OncoPanel normal cell proliferation assay (3-day), panel; type: cell-based; details: the other three cell lines (CCD 841 CoN, HREC, Wi38)
[2] = tested on: IL-17A secretion from human PBMC stimulated with antiCD3/antiCD28-coated beads; details: assay description, reference compound, cited from earlier work
NSD1 (h) = NSD1 (h) (Homo sapiens, UniProt Q96L73); test: Epigenetic enzyme assay, Methyltransferases (MTs); type: biochemical
NSD1 (h), sequence (Q96L73 whole entry): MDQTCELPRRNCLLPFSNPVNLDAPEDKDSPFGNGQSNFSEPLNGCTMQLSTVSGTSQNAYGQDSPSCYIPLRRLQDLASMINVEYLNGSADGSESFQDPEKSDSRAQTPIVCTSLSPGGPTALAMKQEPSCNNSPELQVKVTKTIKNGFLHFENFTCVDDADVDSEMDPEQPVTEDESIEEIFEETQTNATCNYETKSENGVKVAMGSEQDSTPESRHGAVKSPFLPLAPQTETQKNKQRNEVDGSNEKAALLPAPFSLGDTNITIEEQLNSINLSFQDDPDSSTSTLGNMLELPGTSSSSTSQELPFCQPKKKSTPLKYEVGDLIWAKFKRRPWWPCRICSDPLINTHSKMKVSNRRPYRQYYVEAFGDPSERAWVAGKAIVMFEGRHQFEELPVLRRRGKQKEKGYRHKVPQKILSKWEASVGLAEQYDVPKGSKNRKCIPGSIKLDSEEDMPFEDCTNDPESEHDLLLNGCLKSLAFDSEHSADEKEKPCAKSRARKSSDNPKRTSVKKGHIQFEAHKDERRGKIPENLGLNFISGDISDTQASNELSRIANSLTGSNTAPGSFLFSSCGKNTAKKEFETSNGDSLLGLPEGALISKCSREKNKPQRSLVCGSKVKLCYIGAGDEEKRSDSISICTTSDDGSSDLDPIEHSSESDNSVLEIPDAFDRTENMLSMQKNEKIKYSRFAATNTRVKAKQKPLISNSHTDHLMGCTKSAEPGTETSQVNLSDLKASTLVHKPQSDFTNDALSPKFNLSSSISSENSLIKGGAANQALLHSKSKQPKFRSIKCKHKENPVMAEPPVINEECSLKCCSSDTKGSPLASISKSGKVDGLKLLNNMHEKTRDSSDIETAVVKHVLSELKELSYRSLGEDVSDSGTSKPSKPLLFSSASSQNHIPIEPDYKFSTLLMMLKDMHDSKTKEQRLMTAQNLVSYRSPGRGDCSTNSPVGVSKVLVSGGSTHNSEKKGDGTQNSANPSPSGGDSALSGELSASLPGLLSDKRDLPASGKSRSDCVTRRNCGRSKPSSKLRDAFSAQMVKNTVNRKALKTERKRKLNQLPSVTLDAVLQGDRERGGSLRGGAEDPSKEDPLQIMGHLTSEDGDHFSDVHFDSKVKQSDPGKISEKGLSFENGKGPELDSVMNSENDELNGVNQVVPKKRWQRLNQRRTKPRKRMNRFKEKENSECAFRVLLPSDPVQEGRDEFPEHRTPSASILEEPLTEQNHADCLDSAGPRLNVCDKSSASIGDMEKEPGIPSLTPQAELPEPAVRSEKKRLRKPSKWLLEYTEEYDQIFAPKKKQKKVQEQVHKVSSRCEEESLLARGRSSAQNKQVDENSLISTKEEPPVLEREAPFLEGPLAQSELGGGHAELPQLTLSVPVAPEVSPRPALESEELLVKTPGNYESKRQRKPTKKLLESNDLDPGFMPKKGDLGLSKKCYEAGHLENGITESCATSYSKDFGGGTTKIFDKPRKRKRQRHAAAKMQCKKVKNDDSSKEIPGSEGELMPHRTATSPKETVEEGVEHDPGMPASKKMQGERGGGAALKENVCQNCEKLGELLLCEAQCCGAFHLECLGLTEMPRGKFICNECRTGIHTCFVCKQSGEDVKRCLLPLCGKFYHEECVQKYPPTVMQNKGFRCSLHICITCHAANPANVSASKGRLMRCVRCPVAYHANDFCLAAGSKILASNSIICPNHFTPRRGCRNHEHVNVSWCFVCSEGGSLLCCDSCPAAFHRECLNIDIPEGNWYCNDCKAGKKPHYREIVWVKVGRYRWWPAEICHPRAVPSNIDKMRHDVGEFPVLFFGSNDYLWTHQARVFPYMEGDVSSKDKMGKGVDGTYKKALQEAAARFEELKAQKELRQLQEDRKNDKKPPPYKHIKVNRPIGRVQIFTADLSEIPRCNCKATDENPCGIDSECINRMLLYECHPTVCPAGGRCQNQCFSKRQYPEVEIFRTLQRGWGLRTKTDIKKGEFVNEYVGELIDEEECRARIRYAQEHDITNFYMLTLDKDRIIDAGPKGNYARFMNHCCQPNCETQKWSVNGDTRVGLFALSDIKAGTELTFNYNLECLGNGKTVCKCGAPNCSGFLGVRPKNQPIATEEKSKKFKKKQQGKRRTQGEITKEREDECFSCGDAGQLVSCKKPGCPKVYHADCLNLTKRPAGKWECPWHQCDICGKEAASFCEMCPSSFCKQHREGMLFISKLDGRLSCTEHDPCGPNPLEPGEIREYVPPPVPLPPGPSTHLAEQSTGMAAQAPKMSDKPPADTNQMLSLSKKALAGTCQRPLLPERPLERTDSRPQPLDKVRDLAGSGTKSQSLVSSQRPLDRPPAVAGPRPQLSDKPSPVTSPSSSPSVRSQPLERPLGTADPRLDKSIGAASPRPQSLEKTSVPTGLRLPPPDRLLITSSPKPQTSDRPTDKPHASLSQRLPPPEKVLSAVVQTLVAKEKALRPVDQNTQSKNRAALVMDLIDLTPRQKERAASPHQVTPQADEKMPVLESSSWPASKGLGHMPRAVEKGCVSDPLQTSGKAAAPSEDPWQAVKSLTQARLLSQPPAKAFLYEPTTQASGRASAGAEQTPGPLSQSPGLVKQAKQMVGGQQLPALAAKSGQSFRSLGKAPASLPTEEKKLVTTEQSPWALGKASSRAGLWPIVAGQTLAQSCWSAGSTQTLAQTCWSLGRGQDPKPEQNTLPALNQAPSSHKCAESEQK

WHSC1(h) (NSD2(h)) = molecular target: T3, WHSC1(h) (NSD2(h)) (Homo sapiens, UniProt O96028); test: Epigenetic enzyme assay, Methyltransferases (MTs); type: biochemical; details: Table 10; read-out: Reference IC50
T3 sequence (O96028 1-1365): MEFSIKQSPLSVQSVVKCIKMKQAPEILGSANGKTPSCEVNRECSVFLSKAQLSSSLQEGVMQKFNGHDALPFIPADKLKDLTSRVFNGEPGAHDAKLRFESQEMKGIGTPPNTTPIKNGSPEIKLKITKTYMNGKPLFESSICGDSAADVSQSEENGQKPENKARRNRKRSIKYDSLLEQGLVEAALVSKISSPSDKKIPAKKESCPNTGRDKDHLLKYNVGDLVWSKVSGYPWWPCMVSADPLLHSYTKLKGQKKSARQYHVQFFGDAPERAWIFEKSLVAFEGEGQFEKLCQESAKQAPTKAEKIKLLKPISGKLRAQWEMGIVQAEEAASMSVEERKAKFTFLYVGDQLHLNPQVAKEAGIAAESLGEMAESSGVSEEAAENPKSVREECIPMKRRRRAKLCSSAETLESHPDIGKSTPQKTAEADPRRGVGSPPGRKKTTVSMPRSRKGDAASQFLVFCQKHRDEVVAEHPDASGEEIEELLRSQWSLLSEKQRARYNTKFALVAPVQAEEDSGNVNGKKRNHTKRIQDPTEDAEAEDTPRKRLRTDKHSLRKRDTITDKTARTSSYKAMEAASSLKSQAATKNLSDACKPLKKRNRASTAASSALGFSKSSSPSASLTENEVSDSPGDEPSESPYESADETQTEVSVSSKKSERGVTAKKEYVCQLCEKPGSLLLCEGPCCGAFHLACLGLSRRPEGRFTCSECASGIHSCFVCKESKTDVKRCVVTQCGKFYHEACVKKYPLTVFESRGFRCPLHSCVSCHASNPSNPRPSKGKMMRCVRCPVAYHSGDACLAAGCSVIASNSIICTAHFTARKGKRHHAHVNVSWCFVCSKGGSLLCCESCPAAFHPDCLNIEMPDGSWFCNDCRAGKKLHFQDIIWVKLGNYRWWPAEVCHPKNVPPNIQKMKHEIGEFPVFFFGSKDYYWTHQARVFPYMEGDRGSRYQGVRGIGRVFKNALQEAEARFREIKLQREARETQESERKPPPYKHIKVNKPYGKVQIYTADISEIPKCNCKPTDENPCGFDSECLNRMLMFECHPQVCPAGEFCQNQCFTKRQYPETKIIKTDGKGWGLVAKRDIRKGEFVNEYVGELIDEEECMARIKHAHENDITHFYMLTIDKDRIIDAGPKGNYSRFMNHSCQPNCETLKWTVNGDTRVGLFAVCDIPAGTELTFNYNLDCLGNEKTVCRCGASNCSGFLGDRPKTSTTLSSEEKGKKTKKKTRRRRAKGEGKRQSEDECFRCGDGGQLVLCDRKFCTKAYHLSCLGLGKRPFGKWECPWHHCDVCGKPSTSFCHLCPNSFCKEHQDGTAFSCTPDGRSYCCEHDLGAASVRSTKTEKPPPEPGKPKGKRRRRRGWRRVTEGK

SETD8 (h) = molecular target: T4, SETD8 (h) (Homo sapiens, UniProt Q9NQR1); test: Epigenetic enzyme assay, Methyltransferases (MTs); type: biochemical; details: Table 10; read-out: Reference IC50
T4 sequence (Q9NQR1 1-393): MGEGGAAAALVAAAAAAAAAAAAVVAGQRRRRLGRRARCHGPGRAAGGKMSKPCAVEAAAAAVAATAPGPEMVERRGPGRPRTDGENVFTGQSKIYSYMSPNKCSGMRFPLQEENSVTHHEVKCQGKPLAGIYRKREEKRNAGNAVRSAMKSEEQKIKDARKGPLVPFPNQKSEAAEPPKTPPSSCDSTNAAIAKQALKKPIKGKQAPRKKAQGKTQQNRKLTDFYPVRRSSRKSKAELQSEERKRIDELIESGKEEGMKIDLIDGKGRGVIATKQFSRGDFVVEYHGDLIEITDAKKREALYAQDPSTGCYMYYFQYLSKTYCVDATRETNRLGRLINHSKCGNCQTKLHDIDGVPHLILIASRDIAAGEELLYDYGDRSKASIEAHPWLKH

NSD3/WHSC1L1 (h) = molecular target: T5, NSD3/WHSC1L1 (h) (Homo sapiens, UniProt Q9BZ95); test: Epigenetic enzyme assay, Methyltransferases (MTs); type: biochemical; details: Table 10; read-out: Reference IC50
T5 sequence (Q9BZ95 1-1437): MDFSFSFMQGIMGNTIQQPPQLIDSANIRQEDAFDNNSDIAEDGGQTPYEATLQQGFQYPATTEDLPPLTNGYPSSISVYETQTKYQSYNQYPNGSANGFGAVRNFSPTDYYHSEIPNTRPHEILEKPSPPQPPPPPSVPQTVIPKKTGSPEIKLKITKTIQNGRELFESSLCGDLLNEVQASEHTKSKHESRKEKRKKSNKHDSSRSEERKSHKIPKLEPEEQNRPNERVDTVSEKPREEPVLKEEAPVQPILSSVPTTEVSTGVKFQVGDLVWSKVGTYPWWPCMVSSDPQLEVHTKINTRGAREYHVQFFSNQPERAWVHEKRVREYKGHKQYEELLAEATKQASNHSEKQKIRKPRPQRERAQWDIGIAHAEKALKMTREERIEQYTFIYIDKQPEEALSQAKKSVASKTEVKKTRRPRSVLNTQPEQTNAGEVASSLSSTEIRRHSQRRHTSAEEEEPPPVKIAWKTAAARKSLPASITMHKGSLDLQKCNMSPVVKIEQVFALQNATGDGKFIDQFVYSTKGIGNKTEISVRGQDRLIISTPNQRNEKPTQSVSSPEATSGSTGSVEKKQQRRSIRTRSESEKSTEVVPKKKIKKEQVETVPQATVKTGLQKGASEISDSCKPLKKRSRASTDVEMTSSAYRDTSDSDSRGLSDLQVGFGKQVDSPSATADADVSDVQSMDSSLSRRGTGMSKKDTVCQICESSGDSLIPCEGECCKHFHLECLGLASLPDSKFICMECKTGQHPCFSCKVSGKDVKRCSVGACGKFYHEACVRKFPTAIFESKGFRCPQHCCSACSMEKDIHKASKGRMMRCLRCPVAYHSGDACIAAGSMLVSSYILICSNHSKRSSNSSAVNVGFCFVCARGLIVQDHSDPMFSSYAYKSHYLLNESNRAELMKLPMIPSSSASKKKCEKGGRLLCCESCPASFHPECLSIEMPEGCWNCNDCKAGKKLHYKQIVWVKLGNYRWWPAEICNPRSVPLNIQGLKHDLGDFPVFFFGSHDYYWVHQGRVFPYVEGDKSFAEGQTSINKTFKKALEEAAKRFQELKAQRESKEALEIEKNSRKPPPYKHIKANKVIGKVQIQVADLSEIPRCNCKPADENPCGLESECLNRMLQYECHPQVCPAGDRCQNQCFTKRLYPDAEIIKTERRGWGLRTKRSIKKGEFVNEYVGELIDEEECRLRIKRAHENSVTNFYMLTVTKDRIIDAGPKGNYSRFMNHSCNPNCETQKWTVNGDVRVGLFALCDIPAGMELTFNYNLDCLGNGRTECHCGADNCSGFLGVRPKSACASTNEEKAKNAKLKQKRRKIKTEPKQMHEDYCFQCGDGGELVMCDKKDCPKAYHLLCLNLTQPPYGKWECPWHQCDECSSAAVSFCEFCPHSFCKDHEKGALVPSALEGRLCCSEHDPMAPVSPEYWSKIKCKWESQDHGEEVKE

[3] = molecular target: T6, sirtuin 2 (h) (inhibitor effect) (Homo sapiens, UniProt Q8IXJ6); test: Epigenetic enzyme assay, Sirtuins; type: biochemical; details: Table 10; read-out: Reference IC50
T6 sequence (Q8IXJ6 1-389): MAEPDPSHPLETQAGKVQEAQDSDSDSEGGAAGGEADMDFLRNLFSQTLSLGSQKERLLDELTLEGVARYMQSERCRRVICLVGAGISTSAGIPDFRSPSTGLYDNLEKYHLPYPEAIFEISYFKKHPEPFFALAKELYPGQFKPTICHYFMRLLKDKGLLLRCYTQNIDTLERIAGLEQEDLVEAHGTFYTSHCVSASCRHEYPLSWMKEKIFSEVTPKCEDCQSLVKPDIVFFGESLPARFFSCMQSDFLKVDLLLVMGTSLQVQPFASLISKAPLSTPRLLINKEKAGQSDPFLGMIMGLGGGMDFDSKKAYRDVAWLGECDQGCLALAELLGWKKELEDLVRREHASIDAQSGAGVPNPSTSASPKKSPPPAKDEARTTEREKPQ

USP 16 (h), sequence (Q9Y5T5 whole entry): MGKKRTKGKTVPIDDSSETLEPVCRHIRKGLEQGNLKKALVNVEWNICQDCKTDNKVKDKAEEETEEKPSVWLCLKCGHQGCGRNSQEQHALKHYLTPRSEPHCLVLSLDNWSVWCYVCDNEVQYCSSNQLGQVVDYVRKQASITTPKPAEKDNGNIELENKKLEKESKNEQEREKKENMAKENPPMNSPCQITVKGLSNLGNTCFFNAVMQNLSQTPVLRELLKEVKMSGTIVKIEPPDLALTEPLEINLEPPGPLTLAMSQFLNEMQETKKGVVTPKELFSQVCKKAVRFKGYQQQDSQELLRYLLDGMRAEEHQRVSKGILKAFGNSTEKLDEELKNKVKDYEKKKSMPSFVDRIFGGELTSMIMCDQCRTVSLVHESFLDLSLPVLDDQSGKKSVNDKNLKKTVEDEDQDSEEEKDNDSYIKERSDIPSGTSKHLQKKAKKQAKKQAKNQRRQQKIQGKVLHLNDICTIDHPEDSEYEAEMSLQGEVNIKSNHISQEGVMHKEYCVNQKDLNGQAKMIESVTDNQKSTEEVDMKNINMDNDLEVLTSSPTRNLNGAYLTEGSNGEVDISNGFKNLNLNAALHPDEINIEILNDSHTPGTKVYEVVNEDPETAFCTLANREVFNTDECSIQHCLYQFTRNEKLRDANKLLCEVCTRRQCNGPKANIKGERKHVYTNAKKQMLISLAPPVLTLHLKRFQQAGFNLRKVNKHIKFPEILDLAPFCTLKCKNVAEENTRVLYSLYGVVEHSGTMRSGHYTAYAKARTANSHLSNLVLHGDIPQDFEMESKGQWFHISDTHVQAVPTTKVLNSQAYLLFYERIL

Molecule NC(=O)CI [Iodoacetamide, reference compound] has an IC50 (USP 16 (h)) of 3.5 µM.

In the case of Cc1cc(/N=N/c2cc(S(=O)(=O)O)c(C)cc2C)c(N)cc1O [Ischemin sodium salt, reference compound], the IC50 (ATAD2B (h) bromodomain) is reported as 76.6 µM and the IC50 (PB1(4) (h) bromodomain) is reported as 6.8 µM.

Molecule CN1C(=O)C=CC1=O [N-Methylmaleimide, reference compound] has an IC50 (USP 10 (h)) of 1000 µM.

CCCOC(=O)c1cc(O)c(O)c(O)c1 [N-Propyl Gallate, reference compound] showed an IC50 (Lipid Peroxidase) of 206 µM.

For CC(=O)O[C@H]1C(=O)[C@@]2(C)[C@H]([C@H](OC(=O)c3ccccc3)[C@]3(O)C[C@H](OC(=O)[C@H](O)[C@@H](NC(=O)c4ccccc4)c4ccccc4)C(C)=C1C3(C)C)[C@]1(OC(C)=O)CO[C@@H]1C[C@@H]2O [Paclitaxel, paclitaxel], the EC50 (Wi38; read-out: Cell Count EC50) was 0.0039 µM, the GI50 (Wi38; read-out: Cell Count GI50) was 0.0036 µM and the IC50 (Wi38; read-out: Cell Count IC50) was 0.00941 µM. The “toxicity towards normal cells” value (HMEC) was “low toxicity”, the EC50 (HMEC; Homo sapiens, 72 h, HMEC, mammary epithelial, 3-day incubation, read-out: Cell Count EC50) was greater than 30 µM and the GI50 (HMEC; Homo sapiens, 72 h, HMEC, mammary epithelial, 3-day incubation, read-out: Cell Count GI50) was greater than 30 µM. The IC50 (HMEC; Homo sapiens, 72 h, HMEC, mammary epithelial, 3-day incubation, read-out: Cell Count IC50) was greater than 30 µM, the EC50 (HREC; read-out: Cell Count EC50) was 0.00172 µM and the GI50 (HREC; read-out: Cell Count GI50) was 0.0016 µM. The IC50 (HREC; read-out: Cell Count IC50) was 0.0484 µM, the EC50 (CCD 841 CoN; read-out: Cell Count EC50) was 0.0119 µM and the GI50 (CCD 841 CoN; read-out: Cell Count GI50) was 0.0221 µM. The “toxicity towards normal cells” value [1] was “high toxicity”.

For C=CC[C@@H]1/C=C(\C)C[C@H](C)C[C@H](OC)[C@H]2O[C@@](O)(C(=O)C(=O)N3CCCC[C@H]3C(=O)O[C@H](/C(C)=C/[C@@H]3CC[C@@H](O)[C@H](OC)C3)[C@H](C)[C@@H](O)CC1=O)[C@H](C)C[C@@H]2OC [Tacrolimus], the “Emax (plateau of the fitted curve), IL-17A release” value [2] is listed as “approximately 90%” and the EC50 ([2]; read-out: EC50, inhibition of IL-17A release) is listed as roughly 0.00034 µM.

With CN1C(=O)[C@@]23C[C@]4([C@]56C[C@@]78SS[C@@](CO)(C(=O)N7[C@H]5Nc5ccccc56)N(C)C8=O)c5ccccc5N[C@@H]4N2C(=O)[C@]1(CO)SS3 [chaetocin, reference compound] the IC50 (NSD1 (h); Table 10, read-out: Reference IC50) was 0.13 µM, the IC50 (NSD1 (h); Table 11, inhibition/concentration-response curve, read-out: IC50) was 0.24 µM and the IC50 (WHSC1(h) (NSD2(h))) was 0.48 µM.

O=C([O-])c1ccccc1-c1c2cc(Br)c(=O)cc-2oc2[c]([Hg+])c([O-])c(Br)cc12.[Na+].[Na+].[OH-] [mercurochrome, reference compound] gave an IC50 (SETD8 (h)) of 2.4 µM.

With Cc1ccc(C(=O)Nc2ccc(S(=O)(=O)O)c3cc(S(=O)(=O)O)cc(S(=O)(=O)O)c23)cc1NC(=O)c1cccc(NC(=O)Nc2cccc(C(=O)Nc3cc(C(=O)Nc4ccc(S(=O)(=O)O)c5cc(S(=O)(=O)O)cc(S(=O)(=O)O)c45)ccc3C)c2)c1 [suramin, reference compound] the IC50 (NSD3/WHSC1L1 (h)) was 1.5 µM and the IC50 [3] was 21 µM.
